Assay: Toxicity and tissue irritation
Settings: 1,8-cineole content of the oil

CC12CCC(CC1)C(C)(C)O2 [1,8-cineole]
concentration that produces tissue irritation: above 10%

From US6458391B1, “Compositions comprising oleum Melaleuca” (Safe ′N Sound Solutions, Inc., priority 1998, dated 2002)
